How the values were obtained:
PANC-1 cells = PANC-1 cells injected into the pancreas, survival and metastasis; format: in vivo, nude mice; conditions: BVZ 25 μg, MIT 0.10 mg/kg, or B+M; compared with PBS
Description: FIG. 12. Prolonged survival of mice that received treatment with BVZ and MIT in xenograft models of human pancreatic cancer. PANC-1 cells were injected into the pancreas of nude mice (17 to 20 mice/group). The mice received treatment as described in FIG. 2. The entire experiment was terminated 120 days after tumor-cell injection. A, animal survival was monitored daily until termination of the experiment. Cum, cumulative. B, tumor growth in the pancreas and metastasis in the liver and/or other organs were evaluated and expressed as the incidence (%).
Statistical analysis. Each experiment was performed independently at least twice with similar results; one representative experiment is presented. The significance of the in vitro data was determined using Student's t-test (two-tailed), whereas the significance of the in vivo data was determined using the two-tailed Mann-Whitney U test. For the in vivo experiments, overall survival was calculated by the method of Kaplan and Meier. Log rank test was used to compare the survival duration between groups. P≦0.05 was deemed significant.
Prolonged survival of xenograft models of human pancreatic cancer that received treatment with BVZ and MIT.

BxPC3 cells = experiment: Viable cell count in vitro, BxPC3; format: cell-based, human; conditions: 100 μg/ml BVZ
Description: FIG. 14. Effects of treatment with BVZ and MIT on the growth of and gene expression in human pancreatic cancer cells in vitro. (A) BxPC3 and (B) PANC-1 cells were incubated for 1 to 5 days in a medium alone or a medium containing 100 μg/ml BVZ. The viable cells were counted every 24 hours. C, PANC-1 cells were incubated for 6 to 48 hours in a medium alone or a medium containing 100 μg/ml BVZ. Total protein lysates were harvested from the cell cultures, and the level of Sp1, EGFR, and VEGF protein expression was determined using Western blot analysis. Equal protein-sample loading was monitored by probing the same membrane filter with an anti-glyceraldehyde-3-phosphate dehydrogenase antibody (GAPDH). D and E, PANC-1 cells were treated with MIT at concentrations ranging from 0.1 to 1.2 μM for 24 and 48 hours. (D) Cytotoxicity was assessed using the MTT assay, and (E) the level of gene expression was determined using Western blot analysis. NS, nonspecific.
Effects of treatment with BVZ and MIT on the growth of and gene expression in human pancreatic cancer cells. To further determine whether treatment with BVZ directly impacts gene expression in pancreatic cancer cells, we incubated PANC-1 and BxPC3 cells in a medium alone or a medium containing 100 μg/ml BVZ for 6 to 48 hours.

[1] = test system: Sp1, VEGF, EGFR, PDGFA, CD31 (MVD); experiment: Gene expression and MVD in H727 tumor tissues; format: in vivo, nude mice
Description: FIG. 20. Upregulation of Sp1 and VEGF expression by treatment with BVZ and its reversal by treatment with MIT. The tumor tissues described in FIG. 4 were collected and processed as described in Materials and Methods. A. Frozen sections made from the tumors were used CD31 staining and MVD assessment. Representative photos of the stains are shown. B. Total protein lysates were harvested from tumor tissues, and the expression levels of Sp1, VEGF, EGFR and PDGFA protein were determined using Western blot analyses. Equal protein-sample loading was monitored by probing the same membrane filter with an anti-GAPDH antibody. C. The expression levels of Sp1, VEGF, EGFR and PDGFA were further determined by calculating the ratios between those genes and GAPDH.
Western blot analysis. Whole-cell lysates were prepared from human LGNET cell lines and tissues (21). Standard Western blotting was performed using polyclonal rabbit antibodies against human and mouse Sp1, VEGF, EGFR and PDGFA (Santa Cruz Biotechnology, Santa Cruz, Calif.) and the anti-rabbit IgG antibody, a horseradish peroxidase-linked F(ab′)2 fragment obtained from a donkey (Amersham, Arlington Heights, Ill.). Equal protein-sample loading was monitored by probing the same membrane filter with an antibody against glyceraldehyde-3-phosphate dehydrogenase (GAPDH) (21). The probe proteins were detected using the Amersham enhanced chemiluminescence system according to the manufacturer's instructions.
Immunohistochemical analysis and quantification of tumor MVD. For CD31 staining, frozen tissue sections (5 μm thick) were fixed in acetone. Endogenous peroxidase in the specimens was blocked using 3% hydrogen peroxide in phosphate-buffered saline (PBS) for 12 minutes. […] For quantification of tumor MVD, vessels on each section were counted in five high-power fields (magnification, ×200 [×20 objective and ×10 ocular]) as described previously (40). […]

BON-1 cells = experiment: Viable cell count in vitro, BON-1; format: cell-based, human; conditions: 0 to 100 μg/ml BVZ, 5 days
Description: FIG. 18. Effects of treatment with BVZ and MIT on the growth of and gene expression in human carcinoid cells in vitro. A. H727 and BON-1 cells were incubated for 5 days in a medium alone or a medium containing 25 to 100 μg/ml BVZ. The viable cells were counted. B. H727 cells were incubated for 5 days in a medium alone or a medium containing 100 μg/ml BVZ. Total protein lysates were harvested from the cell cultures, and the level of Sp1 and VEGF protein expression was determined using Western blot analysis. Equal protein-sample loading was monitored by probing the same membrane filter with an anti-GAPDH. C. H727 and BON-1 cells were treated with MIT at concentrations ranging from 0.1 to 2.5 μM for 24 hours. Cytotoxicity was assessed using the MTT assay.
Effects of treatment with BVZ and MIT on the growth of and gene expression in human LGNET cells. To further determine whether treatment with BVZ directly impacts gene expression in LGNET cells, we incubated H727 and BON-1 cells in a medium alone or a medium containing 0 to 100 μg/ml BVZ for 5 days.

## bevacizumab [BVZ]
PANC-1 cells
  animal survival: slightly increased survival rate
BxPC3 cells
  cell growth in vitro: did not affect the growth
[1]; combination study (FIGS. 20B and 20C), Western blot
  expression of PDGFA, VEGF, and EGFR in H727 tumor tissue: upregulated the expression of other proangiogenic molecules
[1]; combination study: PBS, BVZ, MIT, or B+M (FIG. 20)
  Sp1 expression in H727 tumor tissue: increased expression of Sp1
[1]; combination study: low-dose BVZ or MIT alone (FIG. 20)
  MVD: did not significantly reduce MVD
BON-1 cells
  cell growth in vitro: did not affect the growth

From patent publication US20080274121A1, “Inhibition of Angiogenesis by Mithramycin” (priority 2007, published 2008)
